Results on 15 molecules are retold here after US8895744B2, “Alfa-carboline inhibitors of NPM-ALK, RET, and Bcr-Abl” (Universita' Degli Studi di Milano-Bicocca, priority 2008, dated 2014).

In the experiment the target is T1, Recombinant ALK kinase (Homo sapiens, UniProt Q9UM73).
T1 construct: made in house; host or cells: Sf9 insect cells (baculovirus)
Description: ALK kinase inhibitory activity, ELISA-based in vitro kinase assay. Format: biochemical. The following applies: purified rALK, 0.3 mM ATP, read-out: ALK IC50. How it is done: 36. Alk Kinase Inhibitory Activity
Method: ELISA-Based In Vitro Kinase Assay
Recombinant ALK kinase was expressed in Sf9 insect cells using the pBlueBacHis2C baculovirus vector system and purified using an anion exchange Fast Flow Q-sepharose column (Amersham-Pharmacia Biotech) followed by HiTrap™-nickel affinity column (Amersham-Pharmacia Biotech). Purified ALK protein was used to screen inhibitors in the ELISA-based kinase assay. A Nunc Immuno 96 well plate was incubated overnight at 37° C. with coating solution (125 μL/well) containing ALK peptide substrate ([…]) (SEQ ID NO: 1) at various concentrations in PBS. Wells were then washed with 200 μL of wash buffer (PBS-Tween 0.05%) and left to dry for at least 2 h at 37° C. The kinase reaction was performed in the presence of 50 mM Tris pH 7.5, 5 mM MnCl2, 5 mM MgCl2, 0.3 mM ATP and purified rALK in a total volume of 100 μL/well at 30° C. for 15 min. For inhibitor testing the reaction mix was preincubated with the inhibitor or solvent control for 10 min at room temperature before transferring to the ELISA plate. After the reaction wells were washed 5 times with 200 μL of wash buffer. Phosphorylated peptide was detected using 100 μL/well of a mouse monoclonal anti-phosphotyrosine antibody (clone 4G10 Upstate Biotech Ltd) diluted 1:2000 in PBS+4% BSA. After 30 min incubation at room temperature the antibody was removed and wells were washed as described above. 100 μL of a secondary antibody (anti-mouse IgG, Horseradish Peroxidase linked whole antibody, Amersham Pharmacia Biotech) diluted 1:1000 in PBS+4% BSA was added to each well and the plate was incubated again for 30 min at room temperature before washing as above. The plate was developed using 100 μL/well TMB Substrate Solution (Endogen) and the reaction was stopped by adding an equiv.ual volume of H2SO4 0.36 M. Finally, the absorbance was read at 450 nm using an Ultrospec® 300 spectrophotometer (Amersham-Pharmacia Biotech). The concentration of the test solution showing 50% inhibition as compared with the control was expressed as IC50 (μM).
In general terms: In an ELISA, binding on a coated surface is turned into a signal by an enzyme label.

For orientation: IC50 means the point on the concentration scale where inhibition reaches its midpoint.

T1 sequence (Q9UM73 19-1620): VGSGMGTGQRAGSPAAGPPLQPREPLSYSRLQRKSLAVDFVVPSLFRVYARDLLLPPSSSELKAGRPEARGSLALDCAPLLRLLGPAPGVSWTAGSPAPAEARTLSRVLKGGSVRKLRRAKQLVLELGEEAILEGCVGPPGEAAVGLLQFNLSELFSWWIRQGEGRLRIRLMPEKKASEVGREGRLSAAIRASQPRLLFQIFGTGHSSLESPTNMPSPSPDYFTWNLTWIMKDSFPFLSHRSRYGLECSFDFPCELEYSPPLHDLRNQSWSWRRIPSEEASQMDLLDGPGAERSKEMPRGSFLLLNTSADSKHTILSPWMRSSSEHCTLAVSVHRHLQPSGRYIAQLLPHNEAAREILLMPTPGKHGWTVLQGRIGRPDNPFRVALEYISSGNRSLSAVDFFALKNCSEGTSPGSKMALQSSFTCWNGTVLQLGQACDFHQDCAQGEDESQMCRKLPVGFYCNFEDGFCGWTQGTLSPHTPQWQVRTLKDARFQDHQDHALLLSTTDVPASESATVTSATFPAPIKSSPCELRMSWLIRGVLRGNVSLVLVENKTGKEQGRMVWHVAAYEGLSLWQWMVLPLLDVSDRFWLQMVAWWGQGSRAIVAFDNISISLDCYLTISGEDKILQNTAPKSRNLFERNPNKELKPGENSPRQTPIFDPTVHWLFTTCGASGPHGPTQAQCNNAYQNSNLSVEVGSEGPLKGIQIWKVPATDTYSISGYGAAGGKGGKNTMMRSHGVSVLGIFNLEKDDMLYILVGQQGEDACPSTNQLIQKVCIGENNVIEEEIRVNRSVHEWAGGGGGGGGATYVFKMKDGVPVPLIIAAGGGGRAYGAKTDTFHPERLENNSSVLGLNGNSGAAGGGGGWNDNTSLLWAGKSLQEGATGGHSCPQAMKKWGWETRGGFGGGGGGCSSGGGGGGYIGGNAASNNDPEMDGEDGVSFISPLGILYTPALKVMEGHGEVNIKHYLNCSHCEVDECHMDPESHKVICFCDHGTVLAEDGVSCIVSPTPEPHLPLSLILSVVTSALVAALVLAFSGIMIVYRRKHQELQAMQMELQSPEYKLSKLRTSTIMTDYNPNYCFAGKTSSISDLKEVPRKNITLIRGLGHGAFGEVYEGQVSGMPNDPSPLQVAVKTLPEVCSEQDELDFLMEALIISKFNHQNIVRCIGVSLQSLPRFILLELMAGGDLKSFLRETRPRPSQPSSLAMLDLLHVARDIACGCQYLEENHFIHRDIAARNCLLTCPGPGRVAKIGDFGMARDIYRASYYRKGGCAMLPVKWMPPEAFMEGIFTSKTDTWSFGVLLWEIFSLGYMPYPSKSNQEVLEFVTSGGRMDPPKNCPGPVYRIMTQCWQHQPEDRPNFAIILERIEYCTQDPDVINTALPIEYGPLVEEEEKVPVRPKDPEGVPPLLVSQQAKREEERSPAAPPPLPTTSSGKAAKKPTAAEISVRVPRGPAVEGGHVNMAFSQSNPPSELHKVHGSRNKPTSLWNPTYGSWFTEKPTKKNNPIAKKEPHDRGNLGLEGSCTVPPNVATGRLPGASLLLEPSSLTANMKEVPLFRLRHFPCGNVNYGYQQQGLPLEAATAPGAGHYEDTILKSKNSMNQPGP

Regarding `COC(=O)C(=O)c1ccc2[nH]c3nc(C)ccc3c2c1` [R241, Methyl 2-oxo-2-[2-methyl-9H-pyrido[2,3-b]indol-6-yl]acetate], the IC50 turned out to be 25.3 ± 2.6 µM.
As for `CC(=O)c1ccc2[nH]c3nc(C)ccc3c2c1` [R242, 6-acetyl-2-methyl-9H-pyrido[2,3-b]indole], the figure is 87.1 ± 1.3 µM; as for `Cc1ccc2c(n1)[nH]c1ccc(C(=O)c3ccccc3)cc12` [R243, 6-benzoyl-2-methyl-9H-pyrido[2,3-b]indole], 15.3 ± 1.5 µM; as for `O=[N+]([O-])/C=C/c1ccc2[nH]c3ncccc3c2c1` [R244], 14.6 ± 2.8 µM.
Regarding `CNCC(=O)c1ccc2[nH]c3ncccc3c2c1` [R245], the IC50 turned out to be 82.4 ± 8.1 µM.
With `CN(C)/C=C/C(=O)c1ccc2[nH]c3ncccc3c2c1` [R246] the figure was 55.1 ± 16.9 µM; with `Nc1cccc(-c2ccc3[nH]c4ncccc4c3c2)n1` [R247], more than 100 µM.
As for `O=C(Nc1ccc2[nH]c3ncccc3c2c1)c1ccccc1` [R249], the figure is more than 100 µM.
As for `O=C(CBr)c1ccc2[nH]c3ncc(Cl)cc3c2c1` [R251, 2-Bromo-1-(3-chloro-9H-pyrido[2,3-b]indol-6-yl)ethanone], the figure is 9.7 ± 1.3 µM; as for `COc1ccc2sc(SCC(=O)c3ccc4[nH]c5ncc(Cl)cc5c4c3)nc2c1` [R301, 1-(3-chloro-9H-pyrido[2,3-b]indol-6-yl)-2-(5-methoxybenzothiazol-2-ylsulfanyl)éthanone], 38 ± 16 µM; as for `COc1cccc(Nc2cnc3[nH]c4ccccc4c3c2)c1` [R344, N-(3-methoxyphenyl)-9H-pyrido[2,3-b]indol-3-amine], more than 100 µM.
As for `c1c[nH]c(-c2ccc3c(n2)[nH]c2ccccc23)c1` [R355, 2-(1H-pyrrol-2-yl)-9H-pyrido[2,3-b]indole], the IC50 was more than 100 µM.
As for `COc1ccc(-c2ccc3[nH]c4ncc(-c5cccc([N+](=O)[O-])c5)cc4c3c2)cc1` [R356], the figure is more than 100 µM; as for `COc1ccc(-c2ccc3[nH]c4ncc(-c5cccc(N)c5)cc4c3c2)cc1` [R357, 3-(6-(4-methoxyphenyl)-9H-pyrido[2,3-b]indol-3-yl)benzenamine], more than 100 µM.
As for `Fc1cccc(/C=C/c2cnc3[nH]c4ccc(/C=C/c5ccccc5)cc4c3c2)c1` [R359, 3-((E)-2′-(3-fluorophenyl)ethenyl)-6-(E)-(2-(phenyl)ethenyl)-9H-pyrido[2,3-b]indole], the figure is more than 100 µM.
